Key:
CF-1 male albino mice = test: Maximal Electroshock Test (MES), anticonvulsant activity; assay type: in vivo
Experimental: Anticonvulsant activity was determined using the MES test, run according to the procedure described in detail below. Swinyard E A, Woodhead J H, White H S, Franklin M R. Experimental selection, quantification, and evaluation of anticonvulsants. In Levy R H, et al., eds. Antiepileptic Drugs. 3rd ed. New York: Raven Press, 1989:85-102
CF-1 male albino mice (25-35 g) were fasted for 16 hours before testing. Mice were randomly selected into control and test groups, with the animals dosed with vehicle or test compound, at varying concentrations, respectively. On the study date, at 30 minutes prior to shock, the mice were orally dosed with vehicle (0.5% methylcellulose) or test compound (100-300 mg/kg). Seizures were induced by trans-corneal electric shock using a 60-Hz alternating current, 50 mA, delivered for 0.2 sec. The mice in the test groups were subjected to electrical stimulus at time intervals between 15 minutes and 4 hours following administration of test compound. […] The test was complete when the entire course of the convulsion has been observed (typically, less than 1 minute after electrical stimulation), and the mice were then immediately euthanized by carbon dioxide inhalation.
Abolition of the full body tonic extensor component of the seizure was taken as the endpoint of the test. […] The ED50 value of the test compound (calculated when appropriate) was the calculated dose required to block the hind limb tonic-extensor component of the MES-induced seizure in 50% of the rodents tested. A probit analysis was used to calculate the ED50 and 95% fiducial limits (FL).
Representative compounds of the present invention were tested according to the procedure described above, with results as listed in Table 4 below. Results are listed as number of mice with full body tonic extension prevented/total number of mice tested @ a given time (at a given test compound dosage level).

carbonic anhydrase = conditions: cited from earlier work

## NS(=O)(=O)NCC1COc2ccccc2O1 (racemic) [Compound #1, N-(2,3-Dihydro-benzo[1,4]dioxin-2-ylmethyl)-sulfamide]
CF-1 male albino mice; @ 1 h, 300 mg/kg oral
  MES Activity: number of mice with full body tonic extension prevented/total number of mice tested: 2/4 @ 1 h (300 mg/kg)

## NS(=O)(=O)NCC1CCc2ccccc2O1 (stereo not drawn) [Compound #10, Chroman-2-ylmethylsulfamide]
CF-1 male albino mice; @ 1 h, 100 mg/kg oral
  MES Activity: number of mice with full body tonic extension prevented/total number of mice tested: 1/5 @ 1 h (100 mg/kg)
other
  melting point: 100 to 101 °C

## CC1(C)O[C@@H]2[C@@H](CO[C@@]3(COS(N)(=O)=O)OC(C)(C)O[C@@H]23)O1 [Topiramate]
Carbonic anhydrase
  carbonic anhydrase inhibition: single digit micromolar

## NS(=O)(=O)NC[C@H]1COc2ccc(Cl)cc2O1 [compound 14, (2S)-(−)-N-(7-Chloro-2,3-dihydro-benzo[1,4]dioxin-2-ylmethyl)-sulfamide]
CF-1 male albino mice; @ 4 h, 100 mg/kg oral
  MES Activity: number of mice with full body tonic extension prevented/total number of mice tested: 3/5 @ 4 h (100 mg/kg)

## NS(=O)(=O)OCC1CCc2ccccc2O1 (stereo not drawn) [Compound #11, Chroman-2-ylmethylsulfamate]
other
  melting point: 87 to 90 °C

## CN(CC1COc2ccccc2O1)S(N)(=O)=O (racemic) [Compound #7, N-(2,3-Dihydro-benzo[1,4]dioxin-2-ylmethyl)-N-methylsulfamide]
CF-1 male albino mice; @ 0.5 h, 300 mg/kg oral
  MES Activity: number of mice with full body tonic extension prevented/total number of mice tested: 3/3 @ 0.5 h (300 mg/kg)
other
  melting point: 97 to 98 °C

## NS(=O)(=O)NC[C@H]1COc2ccc([N+](=O)[O-])cc2O1 [compound 18, (2S)-(−)-N-(2,3-Dihydro-7-nitro-benzo[1,4]dioxin-2-ylmethyl)-sulfamide]
CF-1 male albino mice; @ 100 mg/kg oral
  MES Activity (result in words): Inactive @ 100 mg/kg

## Cc1ccc2c(c1)O[C@@H](CNS(N)(=O)=O)CO2 [Compound #19, (2S)-(−)-N-(7-Methyl-2,3-dihydro-benzo[1,4]dioxin-2-ylmethyl)-sulfamide]
CF-1 male albino mice; @ 0.5 h, 300 mg/kg oral
  MES Activity: number of mice with full body tonic extension prevented/total number of mice tested: 5/5 @ 0.5 h (300 mg/kg)

## NS(=O)(=O)NC[C@H]1COc2ccccc2O1 [Compound #4, (2S)-(−)-N-(2,3-Dihydro-benzo[1,4]dioxin-2-ylmethyl)-sulfamide]
CF-1 male albino mice; @ 1 h, 300 mg/kg oral
  MES Activity: number of mice with full body tonic extension prevented/total number of mice tested: 5/5 @ 1 h (300 mg/kg)

## NS(=O)(=O)NCCC1COc2ccccc2O1 (stereo not drawn) [Compound #16, 2-(2,3-Dihydro-benzo[1,4]dioxin-2-yl)-ethylsulfamide]
CF-1 male albino mice; @ 0.5 h, 300 mg/kg oral
  MES Activity: number of mice with full body tonic extension prevented/total number of mice tested: 5/5 @ 0.5 h (300 mg/kg)
other
  melting point: 101 to 103 °C

## NS(=O)(=O)NCC1COc2ccccc2OC1 [Compound #3, ((3,4-Dihydro-2H-benzo[b][1,4]dioxepin-3-yl)methyl)sulfamide]
CF-1 male albino mice; @ 1 h, 300 mg/kg oral
  MES Activity: number of mice with full body tonic extension prevented/total number of mice tested: 2/3 @ 1 h (300 mg/kg)

## Sulfamic acid, 6,7 dichloro-2,3-dihydro-benzo[1,4]dioxin-2-ylmethyl ester [Compound #27]
CF-1 male albino mice; @ 4 h, 100 mg/kg oral
  MES Activity: number of mice with full body tonic extension prevented/total number of mice tested: 5/5 @ 4 h (100 mg/kg)

## NS(=O)(=O)NCC1Oc2ccccc2O1 [Compound #2, (Benzo[1,3]dioxol-2-ylmethyl)sulfamide]
CF-1 male albino mice; @ 2 h, 100 mg/kg oral
  MES Activity: number of mice with full body tonic extension prevented/total number of mice tested: 4/4 @ 2 h (100 mg/kg)

## Nc1ccc2c(c1)O[C@@H](CNS(N)(=O)=O)CO2 [Compound #36, (2S)-(−)-N-(7-Amino-2,3-dihydro-benzo[1,4]dioxin-2-ylmethyl)-sulfamide]
CF-1 male albino mice; @ 100 and 300 mg/kg oral
  MES Activity (result in words): Inactive @ 100 and 300 mg/kg

## CN(C)S(=O)(=O)NCC1COc2ccccc2O1 (racemic) [Compound #6, N-(2,3-Dihydro-benzo[1,4]dioxin-2-ylmethyl)-N′,N′ dimethylsulfamide]
CF-1 male albino mice; @ 0.5 h, 300 mg/kg oral
  MES Activity: number of mice with full body tonic extension prevented/total number of mice tested: 4/5 @ 0.5 h (300 mg/kg)
other
  melting point: 76 to 78 °C

## NS(=O)(=O)OC[C@H]1COc2cc(Cl)ccc2O1 [Compound #12, Sulfamic acid, 6-chloro-2,3-dihydro-benzo[1,4]dioxin-2-ylmethyl ester]
CF-1 male albino mice; @ 4 h, 100 mg/kg oral
  MES Activity: number of mice with full body tonic extension prevented/total number of mice tested: 3/5 @ 4 h (100 mg/kg)
other
  melting point: 113 to 116 °C

## NS(=O)(=O)NC[C@H]1COc2cc(Cl)ccc2O1 [Compound #8, (2S)-(−)-N-(6-Chloro-2,3-dihydro-benzo[1,4]dioxin-2-ylmethyl)-sulfamide]
CF-1 male albino mice; @ 3 h, 100 mg/kg oral
  MES Activity: number of mice with full body tonic extension prevented/total number of mice tested: 3/5 @ 3 h (100 mg/kg)

## NS(=O)(=O)NC[C@H]1COc2cc(Cl)c(Cl)cc2O1 [Compound #29, (2S)-(−)-N-(6,7 Dichloro-2,3-dihydro-benzo[1,4]dioxin-2-ylmethyl)-sulfamide]
CF-1 male albino mice; @ 4 h, 100 mg/kg oral
  MES Activity: number of mice with full body tonic extension prevented/total number of mice tested: 3/5 @ 4 h (100 mg/kg)
other
  melting point: 119 to 121 °C

— US20050282887A1, “Novel sulfamate and sulfamide derivatives useful for the treatment of epilepsy and related disorders” (priority 2004, published 2005)
